In patent US8951734B2, “Prion-like form of CPEB and related compositions and methods” (priority 2003, dated 2015):
*1 amine or outer side, *2 acyl side, *3 side chain or, on linkers, in order; H or OH if unused. Where a SMILES comes first, the peptide text is derived from it. Bridges are numbered along the chain shown (N, C = ends). Roman numbers before positions name the chains, in order. [ ]: non-standard residue; d: D form. Actinocin(9to1) = Cc1c2oc3c(C)ccc(C(=O)[*:1])c3nc-2c(C(=O)[*:2])c(N)c1=O; NMeV = CN[C@H](C(=O)O)C(C)C; Sar = CNCC(=O)O

Legend:
ApCPEB [1] = test: ApCPEB protein induction in isolated pleural ganglia / sensory cell clusters stimulated with 5-HT, with or without pharmacological agents (Western blot); type: cell-based, Aplysia; conditions: for effect on 5-HT induction of ApCPEB: pretreatment
Experimental: (§1) Aplysia weighing 80-100 grams were used for serotonin (5-HT) stimulation. For whole animal stimulation, the animals were stimulated for 1-1.5 hr at 17° C. with 100 uM of freshly prepared serotonin (Sigma) and then moved to sea water at 17° C. At designated times the pleural ganglia were dissected out. The dissection was carried out in ice cold seawater and frozen in a dry ice-ethanol bath. To apply different pharmacological agents, the pleural ganglia were dissected out and rested for 3-4 hrs at 17° C. before initiation of the treatment. The pleural ganglia were stimulated with 10 uM serotonin instead of 100 uM.
(§2) For western blotting pleural ganglia were homogenized in a buffer containing 600 mM KCl, 10 mM HEPES (7.4), 3 mM MgCl2, 1 mM DTT, and 0.2% NP-40; rotated at 4° C. for 20 min, centrifuged at 14,000×g for 10 min and the supernatant was collected. Approximately 10 ug of total protein was separated on a 10% SDS-PAGE gel and transferred to PVDF membrane. The membranes were blotted with affinity purified CPEB 533 (1:4000), rabbit affinity purified Aplysia Ubiquitin hydrolase (1:1500), rabbit anti-synaptophysin (Zymed) (1:3000), mouse anti-human Hsp70 (1:4000) (BD Biosciences) or monoclonal anti-tubulin (1:3000) (Sigma) followed by incubation with 1:10,000 dilution of HRP coupled anti-rabbit or anti-mouse secondary antibody (Cell signaling) and visualized by chemiluminescence (Pierce chemical). For peptide competition the CPEB77 antibody was preincubated with the peptide (1:20 w/w) at 4° C. for 30 min.

ApCPEB [2] = test: ApCPEB immunostaining in isolated sensory neurites (cell bodies severed); type: cell-based, Aplysia
Experimental: (§3) Following stimulation with serotonin, the cells were washed with filtered seawater and then fixed with freshly prepared 4% paraformaldehyde (PFA) in phosphate-buffered saline (PBS) plus 30% sucrose at 37° C. for 20 min. After fixation, cells were washed three times with PBS and incubated with 0.5% saponin (for isolated neurites) or 0.1% Triton X-100 (for one pulse of serotonin in the neurites) in PBS for 10 min at room temperature (RT). Subsequently cells were washed with PBS three times and excess PFA was quenched by incubating the cells in 50 mM NH4Cl in PBS for 15 min at RT. The fixed cells were blocked with a mixture of heat-inactivated 10% horse serum and 1% goat serum in PBS for 2 hr at RT, then in 1:30 dilution of affinity purified CPEB77 (for isolated neurites) or 1:100 dilution of 463 (for one pulse of serotonin in the synapse) overnight at 4° C. Next day cells were washed three times (20 min each wash) with PBS at RT before incubating with goat anti-rabbit secondary antibody conjugated with Alexa Fluor 488 (1:1000) (Molecular Probes) for 2 hr at room temperature. After three 15 min rinses with PBS cells were mounted on Fluoromount and pictures were taken at Zeiss Axiovert S-100 at 40× magnification using the program Metamorph.

ApCPEB [3] = test: ApCPEB protein in pleural ganglia after whole-animal serotonin exposure (Western blot); type: in vivo, Aplysia
Experimental: as §1, §2

ApCPEB mRNA = test: Semi-quantitative RT-PCR of ApCPEB mRNA in sensory cells of pleural ganglia; type: cell-based, Aplysia
N-actin mRNA = test: Poly-A tail length (PAT) assay of N-actin mRNA after whole-animal serotonin stimulation; type: in vivo, Aplysia
Experimental: The polyA test (PAT) to measure the length of the polyA tail of CPEB mRNA was essentially done as described by Salles and Strickland (1999). Total RNA from the plural ganglia was digested with DNase1 and phenol: chloroform extracted. 3 ug of total RNA was reverse transcribed with 200 ng of AdT primer (5′-[…]-3′) (SEQ ID NO:23) using AMV reverse transcriptase. 2 ul of the cDNA was amplified with Taq polymerase using AdT and N-actin primer 5′-[…]-3′ (SEQ ID NO:17) in the PCR cycle: 94° C. 30 sec, 60° C. 1 min and 72° C. 1 min, 5 sec/cycle for 30 cycles. To check the amount of sensorin, Bmp1 and N-actin, the following primer pairs were used; sensorin-5′-AACAGAAACAGTC-TTTCCCCC-3′ (SEQ ID NO:24) and 5′-TCTTGACTCACCAACTGCC-3′ (SEQ ID NO:25), Bmp1-5′-ATCTATCGCCTATT-ATTATCACCA-3′ (SEQ ID NO:26) and 5′-[…]-3′ (SEQ ID NO:27), N-actin 5′-CCCATCCAT-TGTCCACA-3′ (SEQ ID NO:28) and 5′-TTTGAGCATTCTGGCTTC-3′(SEQ ID NO:29).

[4] = tested on: sensory-motor neuron synapses; conditions: cited from earlier work
ApCPEB [5] = test: ApCPEB immunostaining in bifurcated sensory-motor culture, one branch stimulated with a single pulse of 5-HT; type: cell-based, Aplysia; conditions: 10 uM 5-HT for 50 seconds to one branch; fixed after one hour; n=10
Experimental: as §3, with “Metamorph. […]” for “Metamorph.”

[6] = whole animal serotonin exposure then seawater

**Q.** Which “effect on 5-HT induction of ApCPEB” value (ApCPEB [1]; 50 ug/ml) does the source give for CC[C@H](C)[C@@H]1NC(=O)CNC(=O)[C@@H]2Cc3c([nH]c4cc(O)ccc34)[S+]([O-])C[C@@H](NC(=O)CNC1=O)C(=O)N[C@@H](CC(N)=O)C(=O)N1C[C@H](O)C[C@H]1C(=O)N[C@@H]([C@@H](C)[C@@H](O)CO)C(=O)N2 (stereo in doubt) [α-amanitin] here?
**A.** Its value is “did not block”.

**Q.** For CCCCCCOC(=O)[C@]1(O)C[C@@H]2O[C@@]1(C)n1c3ccccc3c3c4c(c5c6ccccc6n2c5c31)C(=O)NC4 [KT5720], which “effect on serotonin induced increase in ApCPEB” value (ApCPEB [1]; PKA inhibitor pretreatment of sensory clusters, 30 min) is on record?
**A.** The value was “did not block”.

**Q.** With Nc1ncnc2c1ncn2[C@@H]1O[C@@H]2COP(O)(=S)O[C@H]2[C@H]1O (stereo partly drawn) [SpcAMP] as the compound, how does the “level of ApCPEB” value (ApCPEB [1]; activation of PKA by cell permeable cAMP analog, data not shown) read?
**A.** The value was “did not change”.

**Q.** For Cc1c2oc3c(C)ccc(C(=O)N[C@@H]4C(=O)N[C@H](C(C)C)C(=O)N5CCC[C@H]5C(=O)N(C)CC(=O)N(C)[C@@H](C(C)C)C(=O)O[C@@H]4C)c3nc-2c(C(=O)N[C@@H]2C(=O)N[C@H](C(C)C)C(=O)N3CCC[C@H]3C(=O)N(C)CC(=O)N(C)[C@@H](C(C)C)C(=O)O[C@@H]2C)c(N)c1=O [actinomycin D] (I: T[dV]P[Sar][NMeV] / II: T[dV]P[Sar][NMeV]; ester I:1-I:C, II:1-II:C; linker I:N-II:N via Actinocin(9to1)), which “effect on 5-HT induction of ApCPEB” value (ApCPEB [1]; 10 ug/ml) is on record?
**A.** Its value is “did not block”.

**Q.** Which “effect on serotonin dependent increase of ApCPEB protein” value (ApCPEB [1]; PKC inhibitor, 10 uM) does the source give for COc1ccc2c(c[n+](C)c3c4cc5c(cc4ccc23)OCO5)c1OC [chelerythrine] here?
**A.** The value was “did not affect”.

**Q.** For C[C@@H]1C[C@@H]([C@H](O)CC2CC(=O)NC(=O)C2)C(=O)[C@@H](C)C1 [cycloheximide], which “effect on 5-HT induction of ApCPEB protein” value (ApCPEB [1]; 40 uM) is on record?
**A.** The value was “reduced”.

**Q.** For CC[C@H]1CN2CCc3cc(OC)c(OC)cc3[C@@H]2C[C@@H]1C[C@H]1NCCc2cc(OC)c(OC)cc21 [emetine], which “effect on 5-HT induction of ApCPEB protein” value (ApCPEB [1]; 100 uM) is on record?
**A.** Its value is “reduced”.

**Q.** Which “average fluorescence intensity (ApCPEB immunoreactivity)” value (ApCPEB [2]; neurites stimulated with 5-HT in presence of 20 nM rapamycin, n=9) does the source give for CO[C@H]1C[C@@H]2CC[C@@H](C)[C@@](O)(O2)C(=O)C(=O)N2CCCC[C@H]2C(=O)O[C@H]([C@H](C)C[C@@H]2CC[C@@H](O)[C@H](OC)C2)CC(=O)[C@H](C)/C=C(\C)[C@@H](O)[C@@H](OC)C(=O)[C@H](C)C[C@H](C)/C=C/C=C/C=C/1C [rapamycin] here?
**A.** The value was 0.77±0.1.

**Q.** What does the source list for NCCc1c[nH]c2ccc(O)cc12 [serotonin]?
**A.** average fluorescence intensity (ApCPEB immunoreactivity) in stimulated neurites (ApCPEB [2]; 10 uM 5-HT bath application 1 hr, n=8): 9.37±0.73; average fold induction of ApCPEB (ApCPEB [1]; 5-HT for an hour, western blots scanned and quantified with NIH image, controls of inhibitor sets (FIG. 5d)): 3.3±0.4; increase of total CPEB content (ApCPEB [1]; isolated pleural ganglia, 10 uM 5-HT): 3-4 fold; increase in total ApCPEB protein content (ApCPEB [1]; sensory cell clusters, 10 uM 5-HT for 10 min, then seawater 50 min): 4-5 fold; increase of total content of ApCPEB (ApCPEB [3]; whole animal exposed to serotonin for one hour, thirty minutes after initiation of treatment, pleural ganglia extract): 4 to 5 fold; persistence of increased level of ApCPEB (ApCPEB [3]; [6]): about 3 hours; return of ApCPEB to basal levels (ApCPEB [3]; [6]): returned to basal levels after five hours; amount of ApCPEB mRNA, treated versus untreated (ApCPEB mRNA): no significant difference; duration of increased poly(A) tail of N-actin (N-actin mRNA; whole-animal stimulation): at least 4 hours; increase of poly(A) tail of N-actin (N-actin mRNA; within an hour after initiation of treatment): 200-400 nucleotides; duration of long-term facilitation (LTF) ([4]; five pulses (Martin et al. 1997)): three or more days; duration of synapse-specific short-term facilitation ([4]; single pulse to one of two sets of synapses (Martin et al. 1997)): lasts for minutes; average fluorescence intensity (ApCPEB immunoreactivity) in treated branch (ApCPEB [5]): 53.3±8.7
